How the values were obtained:
Uromyces viciae-fabae = Uromyces viciae-fabae / field bean / leaf disc preventative (faba-bean rust); type: in vivo; settings: foliar, 288 h, 100 ppm in the applied formulation, compared to untreated control, read-out: disease control
Procedure: Leaf disks or leaf segments of various plant species are cut from plants grown in a greenhouse. The cut leaf disks or segments are placed in multiwell plates (24-well format) onto water agar. The leaf disks are sprayed with a test solution before (preventative) or after (curative) inoculation. Compounds to be tested are prepared as DMSO solutions (max. 10 mg/ml) which are diluted to the appropriate concentration with 0.025% Tween20 just before spraying. The inoculated leaf disks or segments are incubated under defined conditions (temperature, relative humidity, light, etc.) according to the respective test system. A single evaluation of disease level is carried out 3 to 14 days after inoculation, depending on the pathosystem. Percent disease control relative to the untreated check leaf disks or segments is then calculated.
Field bean leaf discs are placed on water agar in multiwell plates (96-well format) and 10 μl of the formulated test compound diluted in acetone and a spreader pipetted onto the leaf disc. Two hours after application leaf discs are inoculated by spraying a spore suspension on the lower leaf surface. The leaf discs are incubated in a climate cabinet at 22° C. with 18 hour day and 70% relative humidity. The activity of a compound is assessed as percent disease control compared to untreated when an appropriate level of disease damage appears in untreated check leaf disks (12 days after application).
The following compounds at 100 ppm in the applied formulation give at least 80% disease control in this test when compared to untreated control leaf discs under the same conditions, which show extensive disease development.

[1] = test system: Puccinia recondita f. Sp. tritici; assay: Puccinia recondita f. sp. tritici / wheat / leaf disc preventative (brown rust); type: in vivo; settings: foliar, 200 ppm in the applied formulation, compared to untreated control, read-out: disease control
How it was run: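 Wheat leaf segments (cv. Kanzler) on water agar were sprayed with test compound (DMSO stock diluted in 0.025% Tween20/water), then spore-inoculated 1 day later. Incubation at 19° C., 75% rh, 12 h light/12 h dark; percent disease control versus untreated segments scored 7 to 9 days after application. Tested at 200 ppm.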

[2] = test system: Glomerella lacenarium (Colletotrichum lacenarium); assay: Glomerella lacenarium (Colletotrichum lacenarium) liquid culture / cucumber / preventative (anthracnose); type: cell-based; settings: 20 ppm in the applied formulation, growth inhibition measured photometrically, compared to untreated control, read-out: disease control
How it was run: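 Test compound in DMSO is placed in a microtiter plate, then potato dextrose broth containing conidia from cryogenic storage is added. Incubation runs at 24° C., and growth inhibition is read photometrically after 3 to 4 days.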

Phakopsora pachyrhizi = Phakopsora pachyrhizi / soybean / leaf disc preventative (Asian soybean rust); type: in vivo; settings: foliar, 200 ppm in the applied formulation, compared to untreated control, read-out: disease control
How it was run: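 Read-out is percent disease control relative to untreated check discs, assessed once untreated discs show adequate disease, 12 to 14 days after application. Compounds, tested at 200 ppm in the applied formulation, are sprayed onto soybean leaf discs one day before inoculation with a spore suspension.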

[3] = test system: Puccinia recondita f. Sp. tritici; assay: Puccinia recondita f. sp. tritici / wheat / leaf disc curative (brown rust); type: in vivo; settings: foliar, 200 ppm in the applied formulation, compared to untreated control, read-out: disease control
How it was run: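 Segments of wheat (cultivar Kanzler) sit on agar and are spore-inoculated first; after one day in darkness at 19° C and 75% RH the diluted formulated compound is sprayed on. A 12 h photoperiod follows at the same temperature and humidity before disease is scored against untreated controls.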

`OC(c1ccccc1)c1ccc(-c2noc(C(F)(F)F)n2)cc1` (centres unmarked) [Compound 2.2, phenyl-[4-[5-(trifluoromethyl)-1,2,4-oxadiazol-3-yl]phenyl]methanol] showed a pest or weed control at 100 ppm (Uromyces viciae-fabae) of at least 80%, a pest or weed control at 200 ppm [1] of at least 80% and a melting point of 63 to 69 °C. The inhibition of growth at 20 ppm [2] was at least 80% and the pest or weed control at 200 ppm (Phakopsora pachyrhizi) was at least 80%.
`CC#CC(O)c1ccc(-c2noc(C(F)(F)F)n2)cc1` (centres unmarked) [Compound 2.6, 1-[4-[5-(trifluoromethyl)-1,2,4-oxadiazol-3-yl]phenyl]but-2-yn-1-ol] showed a pest or weed control at 100 ppm (Uromyces viciae-fabae) of at least 80%, a pest or weed control at 200 ppm [1] of at least 80% and a melting point of 93 to 96 °C. For the same molecule, the inhibition of growth at 20 ppm [2] was at least 80%, the pest or weed control at 200 ppm [3] was at least 80% and the pest or weed control at 200 ppm (Phakopsora pachyrhizi) was at least 80%.

— patent US11026427B2, “Microbiocidal oxadiazole derivatives” (SYNGENTA PARTICIPATIONS AG, priority 2016, dated 2021)
